In US8227232B2, “Thermostable L-ribose isomerase and method for producing same and use of same” (National University Corporation Kagawa Univeristy, priority 2006, dated 2012):

Assays:
[1] = test system: thermostable L-ribose isomerase derived from Raoultella ornithinolytica; test: L-ribose isomerase activity assay on various aldose substrates (cysteine/carbazole method); type: biochemical; conditions: aldose as substrate; for relative activity to the activity on L-ribose: activity on L-ribose designated as 100%
Protocol: The activity of the L-ribose isomerase of the invention can be assayed as follows. 0.05 ml of 0.05 M glycine-NaOH buffer (pH 9.0), 0.05 ml of 0.05 M L-ribose and the enzyme solution were mixed together to a total volume of 0.5 ml, for the enzyme reaction at 45° C., to generate L-ribulose, which is assayed by the cysteine/carbazole method. One unit of the enzyme activity is designated as the enzyme amount to generate 1 μmol of L-ribulose per one minute.
Using 50 mM L-ribose as a substrate, the enzyme reaction continued at 45° C. for 10 minutes, so that the amount of the generated ketose (L-ribulose) was assayed by the cysteine/carbazole method. As to the temperature stability, the enzyme activity was assayed after 10-min treatment at individual temperatures. As to the optimal pH conditions, the enzyme reaction was performed at 45° C. for 10 minutes in 50 mM acetate buffer (pH 2 to 6), 50 mM sodium phosphate buffer (pH 6 to 8), 50 mM Tris-HCl buffer (pH 8 to 9) or 50 mM glycine-sodium hydroxide buffer (pH 9 to 11), using 50 mM L-ribose as substrate, to assay the amount of a ketose (L-ribulose) generated thereafter by the cysteine/carbazole method (Table 2). The enzyme reaction was done at the composition shown in Table 2 at 45° C. for 10 minutes (Table 3), and the reaction was terminated by adding 50 μl of 10% TCA (trichloroacetic acid). […] After completion of the reaction, absorbance at 540 nm was measured with an ultraviolet/visible spectrophotometer V530 (JASCO Corporation). Additionally, the amount of the enzyme generating 1 μmol L-ribulose per one minute was designated as one unit.
According to the assay method of the activity, the activity of the enzyme was assayed, using various aldose types as substrates. The activities on various aldose types are shown in relative activities to the activity on L-ribose, which is designated as 100%.

[2] = test system: thermostable L-ribose isomerase from Raoultella ornithinolytica; test: Confirmation of enzyme reaction product by HPLC; type: biochemical; conditions: 50 mM substrate, crude enzyme solution, 40° C., 24 hours
Protocol: A crude enzyme solution (0.65 U/ml) was recovered after culturing in a culture medium with 0.1% D-lyxose in 2% TSB, at 37° C. for 2 days and ultrasonication for extraction; 150 μl of the crude enzyme solution reacted with 50 mM of a substrate including individual ketose types such as L-ribose, D-fructose, D-tagatose and L-psicose at 40° C. for 24 hours. After reaction, the enzyme was inactivated under heating in hot water for 2 minutes, and centrifuged at 12,000 rpm for 5 minutes to recover the supernatant. Then, about 2 spoonfuls of a desalted resin (mixed and dried at a ratio of IRA411:SKIB=2:1) in a microspatula were added to the resulting supernatant, for mixing under inversion. After one hour, the solution was filtered through a 0.45-μm filter, for high-performance liquid chromatography (HPLC). As the column, Hitachi HPLC column GL-C611 (manufactured by Hitachi Chemical Industry Co., Ltd.) was used; as the detector, a differential refractive meter (L-7490 refractive index detector manufactured by Hitachi Hightech Co., Ltd.) was used. While the column was retained at 60° C., 10^−4 M sodium hydroxide solution as an eluent was used at a flow rate of 1.0 mL/min. The resulting signals were collected and analyzed with a data analysis software (SmartChrom, manufactured by KYA Technologies Co., Ltd.).

Row | Compound | activity of the enzyme for the substrate (in words) [1] | product generated from the substrate [2] | relative activity to the activity on L-ribose [1] [%]
1 | O=C[C@H](O)[C@H](O)[C@H](O)[C@H](O)CO [D-allose] | never exerts any activities |  | 
2 | O=C[C@@H](O)[C@H](O)[C@H](O)[C@H](O)CO [D-altrose] | never exerts any activities |  | 
3 | O=C(CO)[C@@H](O)[C@H](O)[C@H](O)CO [D-fructose] |  | D-mannose is generated | 
4 | O=C[C@H](O)[C@@H](O)[C@H](O)[C@H](O)CO [D-glucose] | never exerts any activities |  | 
5 | O=C[C@@H](O)[C@@H](O)[C@H](O)CO [D-lyxose] | exerted activities |  | 15.3

Now from value to molecule:

Row | activity of the enzyme for the substrate (in words) [1] | product generated from the substrate [2] | relative activity to the activity on L-ribose [1] [%] | Compound
6 | exerted activities |  |  | O=C[C@@H](O)[C@@H](O)[C@H](O)[C@H](O)CO [D-mannose]
7 |  | D-tallose is generated |  | O=C(CO)[C@@H](O)[C@@H](O)[C@H](O)CO [D-tagatose]
8 | exerted activities |  | 56.9 | O=C[C@@H](O)[C@@H](O)[C@@H](O)[C@H](O)CO [D-tallose]
9 | exerted activities |  | 2.2 | O=C[C@@H](O)[C@@H](O)[C@@H](O)[C@@H](O)CO [L-allose]
10 |  | L-allose is generated |  | O=C(CO)[C@@H](O)[C@@H](O)[C@@H](O)CO [L-psicose]
11 | highest activity | L-ribulose is generated | 100 | O=C[C@@H](O)[C@@H](O)[C@@H](O)CO [L-ribose]
